# Data reported in publication PMC6123649, “Structural basis for specific inhibition of the highly sensitive ShHTL7 receptor” (EMBO Reports, 2018).
# “And” between values parts separate entries of the source, which are not always exact repeats. Equal values may be shown once.
# Columns and labels:
# [1] = biological target: T1, ShHTL7 (Striga hermonthica, UniProt A0A0M3PNA2); experiment: Yoshimulactone Green (YLG) hydrolysis competition assay; assay type: biochemical
# T1 sequence (A0A0M3PNA2 1-271): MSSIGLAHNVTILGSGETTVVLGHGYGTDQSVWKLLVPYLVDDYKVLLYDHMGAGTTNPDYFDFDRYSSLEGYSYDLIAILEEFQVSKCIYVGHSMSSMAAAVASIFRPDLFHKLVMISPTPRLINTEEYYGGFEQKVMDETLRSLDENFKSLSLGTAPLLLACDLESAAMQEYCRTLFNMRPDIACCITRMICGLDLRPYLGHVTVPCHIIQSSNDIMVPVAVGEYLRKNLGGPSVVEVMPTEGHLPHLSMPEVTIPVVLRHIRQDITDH
# Experimental: In vitro YLG hydrolysis assays were performed using 3 μM of ShHTL7, ShHTL7‐L143Y, AtD14, and OsD14 in a reaction buffer (1× PBS) with 0.1% dimethyl sulfoxide (DMSO) in a 100 μl volume on a 96‐well black plate (Greiner). The fluorescent intensity was measured by SpectraMax i3 (Molecular Devices) using an excitation wavelength of 480 nm and a detection wavelength of 520 nm. […] Protein‐Triton mixes were pre‐incubated for 30 min. 1 μM YLG (Tokyo Chemical Industry Co. Ltd.) was then added, and the assay was incubated for 60 min. The change in fluorescence observed over the course of 1 h incubation of YLG in buffer without protein was subtracted from the data collected in the presence of protein. The resulting relative fluorescence values were analyzed. The inhibitory curves and IC50 values were plotted using GraphPad (Prism 6) four‐parameter logistic curve. The rate of YLG hydrolysis by ShHTL7 was recorded following the above method at 10‐min interval for 2 h.
# [2] = system: ShHTL7‐L143Y; experiment: YLG hydrolysis assay; assay type: biochemical, Striga hermonthica
# Experimental: In vitro YLG hydrolysis assays were performed using 3 μM of ShHTL7, ShHTL7‐L143Y, AtD14, and OsD14 in a reaction buffer (1× PBS) with 0.1% dimethyl sulfoxide (DMSO) in a 100 μl volume on a 96‐well black plate (Greiner). The fluorescent intensity was measured by SpectraMax i3 (Molecular Devices) using an excitation wavelength of 480 nm and a detection wavelength of 520 nm. ShHTL7, ShHTL7‐L143Y, AtD14, and OsD14 were mixed with Triton X‐100, using serial dilutions to cover the Triton X‐100 concentration range from 5 μM until 4.87 nM. Protein‐Triton mixes were pre‐incubated for 30 min. 1 μM YLG (Tokyo Chemical Industry Co. Ltd.) was then added, and the assay was incubated for 60 min. The change in fluorescence observed over the course of 1 h incubation of YLG in buffer without protein was subtracted from the data collected in the presence of protein. The resulting relative fluorescence values were analyzed. The inhibitory curves and IC50 values were plotted using GraphPad (Prism 6) four‐parameter logistic curve. The rate of YLG hydrolysis by ShHTL7 was recorded following the above method at 10‐min interval for 2 h.
# [3] = biological target: T2, OsD14 (Oryza sativa subsp. japonica, UniProt Q10QA5); experiment: DSLS, aggregation temperature; assay type: binding; settings: up to 100 μM of Triton
# T2 construct: made in house; host or cells: E. coli BL21 (DE3)
# T2 sequence (Q10QA5 1-318): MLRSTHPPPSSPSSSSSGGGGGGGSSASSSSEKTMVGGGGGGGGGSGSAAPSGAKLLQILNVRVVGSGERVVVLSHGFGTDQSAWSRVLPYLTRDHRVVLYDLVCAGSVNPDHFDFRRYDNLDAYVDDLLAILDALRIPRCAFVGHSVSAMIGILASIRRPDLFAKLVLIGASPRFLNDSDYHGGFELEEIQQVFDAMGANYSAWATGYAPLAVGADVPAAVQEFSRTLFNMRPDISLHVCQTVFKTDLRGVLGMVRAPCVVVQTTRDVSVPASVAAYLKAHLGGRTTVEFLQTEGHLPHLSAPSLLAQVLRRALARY
# Experimental: The specific aggregation temperature, T agg, at which ShHTL7, ShHTL7L143Y, AtD14, and OsD14 aggregated in the presence or absence of Triton X‐100, GR24, and PAA was measured using DSLS on the Stargazer system (Harbinger Biotechnology and Engineering Corporation, Markham, Canada). Protein samples at a concentration of 10 μM were overlaid with mineral oil in a clear bottom 384‐well black plate (Corning) and heated from 20 to 95°C at 1°C/min; light scattering was detected by a CCD camera every 0.5°C in the presence or absence of varying concentrations of Triton X‐100, GR24, and PAA yielding the difference in aggregation temperature at a particular concentration from apoproteins (ΔT agg). Data were normalized, and ΔT agg plotted against the Triton X‐100, GR24, and PAA concentration. Resulting data were plotted to determine the change in T agg of all proteins when bound to Triton X‐100, GR24, and PAA using GraphPad (Prism 6).
# [4] = system: Striga hermonthica seeds; experiment: Striga hermonthica germination bioassay; assay type: in vivo
# Experimental: Striga hermonthica seeds were collected from Sorghum bicolor field in Sudan. For germination bioassays, Striga seeds were first sterilized and pre‐conditioned as described before 31. […] Triton X‐100/GR24 mixtures were applied (50 μl per disk) in four replicates. Corresponding volumes of GR24 and sterile MiliQ water were included as positive and negative control, respectively. The petri dishes were sealed with parafilm, enfolded with aluminum foil, and incubated for 48 h at 30°C. The germinated (seeds with radicle emerging through the seed coat) and non‐germinated Striga seeds were recorded under a binocular, and germination percentage was calculated.
# [5] = system: rice seeds cv. Nipponbare; experiment: Rice seed germination assay and growth of seedlings; assay type: in vivo; settings: 15 μM of Triton
# Experimental: The rice seeds cv. Nipponbare were surface‐sterilized using 50 ml (2.5%) sodium hypochlorite with 0.4% of Tween‐20 for 15 min. After six subsequent washing steps with sterilized water, the rice seeds were kept in water at 30°C for overnight imbibition. About 2 ml of Triton X‐100 concentrations ranging from 1 to 100 μM and sterile MilliQ water (control) was added in 24‐well plates with six replications. One sterilized rice seed was put in each well and allowed to germinate for 48 h at 30°C. The germinated (radicle emergence) and non‐germinated seeds were recorded, and germination percentage was calculated. Then, same seeds were allowed to grow under light in growth cabinet for another 1 week. The length of […] seedlings was measured with roller and averaged.
# [6] = system: Orobanche cumana; parameters: method as in PMID 23915294; settings: concentrations above 0.001%; cited from earlier work
substance,measurement,setting,value
Triton X-100,IC50,"[1]; 3 μM ShHTL7, 1 μM YLG, pre‐incubation with compound, read-out: IC50, YLG hydrolysis by ShHTL7",0.47 ± 0.11 µM
same,fold lower IC50 than that reported for Soporidine,[1]; compared with non‐specific inhibitor Soporidine,25 fold
same,inhibition of hydrolysis activity of ShHTL7 L143Y,[2],did not inhibit
same,effect on T agg,[3],failed to affect
same,reduction in GR24‐induced germination,"[4]; 15 μM Triton, GR24 0.125–1 nM, 2 days",~ 50% and 50%
same,reduction of Striga germination by Triton,[4]; in vivo,up to 50%
same,effect on rice seed germination,[5],did neither inhibit
same,effect on rice seedling growth,[5],nor affected seedling growth
same,effect on seed germination,[6],hindered seed germination
